In patent US6914075B2, “Cystine derivative and agent for suppressing activation of inflammatory factors” (Ajinomoto Co., Inc., priority 2001, dated 2005):

Test system: NF-κB
Experiment: Test of the potency of NF-κB activation suppression (gel shift assay, UVB-irradiated human epidermal cells)
Format: cell-based
Conditions: added 18 h before UVB 50 mJ/cm^2, nuclear protein 4 to 5 hours later
Description: Test compounds shown in Table 1 were added individually to human epidermal cells at confluency in a culture plate. 18 hours later, the culture broth was exchanged with a phenol red-free culture medium. Using Dermalei M-DMR-80 (manufactured by Toshiba Medical Supplies, Co., Ltd.), the cells were irradiated with an ultraviolet ray (UVB: 50 mJ/cm^2). 4 to 5 hours later, the cells were recovered and the nuclear protein was extracted using a general method. By using a gel shift assay method, the activated NF-κB in the resulting nuclear protein was detected. Determination of NF-κB was conducted based on counting the radioactivity of labeled NF-κB using a bioimaging analyzer BAS2000 (manufactured by Fuji Film Co., Ltd.). The ratio of NF-κB activation suppression by the inventive compounds compared with a test compound was calculated by the following formula (1). Ratio (%) of NF-κB activation suppression=[1-(A1−A3)/(A2−A3)]×100 (1)
A1: radioactivity of NF-κB band with addition of test compound
A2: radioactivity of NF-κB band without addition of test compound
A3: radioactivity of NF-κB band without addition of test compound and without ultraviolet irradiation

Row | Compound | Suppression ratio (%) of NF-κB activation (test compound 0.1 mM) [%] | Suppression ratio (%) of NF-κB activation (test compound 0.5 mM) [%] | Suppression ratio (%) of NF-κB activation (test compound 1.0 mM) [%] | Suppression ratio (%) of NF-κB activation (test compound 10 mM) [%] | Suppression ratio (%) of NF-κB activation (test compound 30 mM) [%]
1 | O=C(O)[C@H](CSSC[C@H](NCc1ccccc1O)C(=O)O)NCc1ccccc1O [N,N′-Bis(2-hydroxybenzyl)-L-cystine] | 41 | 86 | > 100 | – | –
2 | CC(=O)N[C@@H](CSSC[C@H](NC(C)=O)C(=O)O)C(=O)O [N,N′-Diacetyl-L-cystine] | – | – | – | 48 | 67
3 | O=C(O)[C@H](CO)NCc1ccccc1O [N-(2-Hydroxybenzyl)-L-serine] | – | – | – | 17 | 34
